# Results reported in patent US20110166176A1, “COMPOUNDS AND COMPOSITIONS AS MODULATORS OF GPR119 ACTIVITY” (IRM LLC, priority 2008, published 2011).
# Molecular target: T1, human GPR119 (Homo sapiens, UniProt Q8TDV5)
# T1 construct: expressed in transfected cells
# T1 sequence (Q8TDV5 1-335): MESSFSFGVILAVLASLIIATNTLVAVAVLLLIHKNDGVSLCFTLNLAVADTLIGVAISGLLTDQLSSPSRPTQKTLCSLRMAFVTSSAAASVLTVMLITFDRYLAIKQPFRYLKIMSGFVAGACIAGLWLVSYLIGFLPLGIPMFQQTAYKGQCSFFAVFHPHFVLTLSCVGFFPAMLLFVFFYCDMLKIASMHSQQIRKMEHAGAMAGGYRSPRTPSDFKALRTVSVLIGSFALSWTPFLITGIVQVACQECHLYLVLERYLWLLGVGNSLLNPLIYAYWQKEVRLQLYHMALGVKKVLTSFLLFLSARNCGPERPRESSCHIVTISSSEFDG
# Assay: Cyclic AMP assay (HTRF) in stable Flp-In-CHO-hGPR119 cell line
# Assay type: cell-based
# Conditions: Flp-In-CHO-hGPR119 cells, intracellular cAMP, 30 minutes at 37° C., 1 mM IBMX, read-out: CHO-GPR119-HTRF (3158) EC50
# Method: Flp-In-CHO cells (Invitrogen, Cat. # R758-07) are maintained in Ham's F12 medium supplemented with 10% fetal bovine serum, 1% antibiotic mixture and 2 mM L-glutamine. The cells are transfected with a DNA mixture containing human GPR119 in pcDNA5/FRT vector and the pOG44 vector (1:9) using Fugene6 (Roche), according to the manufacturer's instruction. After 48 hours, the medium is changed to medium supplemented with 400 μg/ml hygromycin B to initiate the selection of stably transfected cells.
# To test the activity of compounds of the invention, Flp-In-CHO-hGPR119 cells are harvested and resuspended in DMEM plus 3% lipid-depleted fetal bovine serum. Forth μl of cells are plated in 384 well plates at a density of 15,000 cells/well. IBMX (3-isobutyl-1-methyl-xanthine) is added to the cells to a final concentration of 1 mM, followed by the addition of 500 nl of the compound to be tested. The cells are incubated at 37° C. for 30 minutes. Equal volume (20 μl) of the HTRF reagents, anti-cAMP-Cryptate and cAMP-XL665, are added to the cells. The plates are incubated at room temperature for 1 hour and read on a HTRF reader according to the manufacturer's instruction.
# Compounds of Formula I, in free form or in pharmaceutically acceptable salt form, produced a concentration-dependent increase in intracellular cAMP level. […] Specific EC50 data is presented for some of the compounds of the invention in the table, infra.
row,SMILES,EC50 [nM]
1,"CC(C)OC(=O)N1CCc2ccc(CO[C@H]3CCN(c4ccc(S(C)(=O)=O)cc4)C3)cc2C1 [Example 4, (S)-isopropyl 7-((1-(4-(methylsulfonyl)phenyl)pyrrolidin-3-yloxy)methyl)-3,4-dihydroisoquinoline-2(1H)-carboxylate]",424
2,"CNCc1ccc(O[C@H]2CCN(c3ccc(S(C)(=O)=O)cc3)C2)cc1 [Example 5, (S)—N-methyl-1-(4-(1-(4-(methylsulfonyl)phenyl)pyrrolidin-3-yloxy)phenyl)methanamine]",353
3,CS(=O)(=O)c1ccc(N2CC[C@H](Oc3cccc(CNCc4ccccc4)c3)C2)c(F)c1 [Example 9],2620
4,"CC(C)OC(=O)N1CCc2cc(O[C@H]3CCN(c4ccc(S(C)(=O)=O)cc4)C3)ccc2C1 [Example 1, (S)-isopropyl 6-(1-(4-(methylsulfonyl)phenyl)pyrrolidin-3-yloxy)-3,4-dihydroisoquinoline-2(1H)-carboxylate]",85
5,CC(C)OC(=O)N(Cc1cccc(O[C@H]2CCN(c3ccc(S(C)(=O)=O)cc3)C2)c1)C(C)C [Example 16],199
6,CC(C)OC(=O)N(C)Cc1cccc(O[C@H]2CCN(c3ccc(S(C)(=O)=O)cc3)C2)c1 [Example 17],263
7,CCCN(Cc1ccccc1)Cc1cccc(O[C@H]2CCN(c3ccc(S(C)(=O)=O)cc3F)C2)c1 [Example 13],730
8,"CCN(Cc1cccc(O[C@H]2CCN(c3ccc(S(C)(=O)=O)cc3)C2)c1)C(=O)OC(C)C [Example 14, (S)-Isopropyl ethyl(3-(1-(4-(methylsulfonyl)phenyl)pyrrolidin-3-yloxy)benzyl)carbamate]",82
9,CC(C)OC(=O)OCCc1cccc(O[C@@H]2CCN(c3ccc(S(C)(=O)=O)cc3F)C2)c1 [Example 20],515
10,CCN(Cc1ccccc1)Cc1cccc(O[C@H]2CCN(c3ccc(S(C)(=O)=O)cc3)C2)c1 [Example 7],423
11,CC(C)N(Cc1ccccc1)Cc1cccc(O[C@H]2CCN(c3ccc(S(C)(=O)=O)cc3F)C2)c1 [Example 12],33
12,"CC(C)OC(=O)N1CCc2cc(CO[C@H]3CCN(c4ccc(S(C)(=O)=O)cc4)C3)ccc2C1 [Example 3, (S)-isopropyl 6-((1-(4-(methylsulfonyl)phenyl)pyrrolidin-3-yloxy)methyl)-3,4-dihydroisoquinoline-2(1H)-carboxylate]",202
13,"CC(C)OC(=O)OCc1cccc(O[C@H]2CCN(c3ccc(S(C)(=O)=O)cc3F)C2)c1 [Example 18, (S)-3-(1-(2-fluoro-4-(methylsulfonyl)phenyl)pyrrolidin-3-yloxy)benzyl isopropyl carbonate]",794
14,CCN(Cc1ccccc1)Cc1cccc(O[C@H]2CCN(c3ccc(S(C)(=O)=O)cc3F)C2)c1 [Example 11],356
15,CCCN(Cc1cccc(O[C@H]2CCN(c3ccc(S(C)(=O)=O)cc3)C2)c1)C(=O)OC(C)C [Example 15],397
16,CC(C)OC(=O)OCc1ccc(O[C@@H]2CCN(c3ccc(S(C)(=O)=O)cc3F)C2)cc1 [Example 19],1020
17,"CNCc1cccc(O[C@H]2CCN(c3ccc(S(C)(=O)=O)cc3)C2)c1 [Example 6, (S)—N-methyl-1-(3-(1-(4-(methylsulfonyl)phenyl)pyrrolidin-3-yloxy)phenyl)methanamine]",319
18,CC(C)N(Cc1ccccc1)Cc1cccc(O[C@H]2CCN(c3ccc(S(C)(=O)=O)cc3)C2)c1 [Example 8],586
19,"CC(C)OC(=O)N1CCc2cc(O[C@H]3CCN(c4ccc(S(C)(=O)=O)cc4F)C3)ccc2C1 [Example 2, (S)-isopropyl 6-(1-(2-fluoro-4-(methylsulfonyl)phenyl)pyrrolidin-3-yloxy)-3,4-dihydroisoquinoline-2(1H)-carboxylate]",42
20,CN(Cc1ccccc1)Cc1cccc(O[C@H]2CCN(c3ccc(S(C)(=O)=O)cc3F)C2)c1 [Example 10],259
